In patent US20250041309A1 (ZHENAO JINYINHUA PHARMACEUTICAL, priority 2021, published 2025):
Structures can show the parent of a compound that is named as a salt.

Assays:
[1] = pH measurement of Aildenafil salts dissolved in water; type: physicochemical; conditions: for 2 mg/ml pH value: 2 mg/ml in water; for 10 mg/ml pH value: 10 mg/ml in water
[2] = tested on: MCAO rats; experiment: Cerebral infarction range (TTC) in MCAO rats, oral administration (Example 23); type: in vivo, SD rats; conditions: gavage 8 mg/kg*2, after 14 days; for Improvement rate % of cerebral infarction range: versus model control group; for Total cerebral infarction %: x ± s, n = 20
Procedure: (§1) Administration route: gavage administration;
(§2) Dosage: 8 mg/kg body weight, twice a day;
(§3) Administration time: gavage administration twice a day in the morning and evening (administered immediately after modeling).
(§4) A rat model of middle cerebral artery ischemia/reperfusion (MCAO/R) was created using suture-occluded method.
(§5) The successfully modeled rats were randomly divided into 4 groups based on their scores, with an average of 20 rats in each group.
At the end of the experiment, the brain tissue of the rats was collected by bloodletting and frozen in a −20° C. freezer, and then is sliced into a thickness of 2 mm per slice. The brain tissue slices were placed in a 2% red tetrazolium (TTC) solution and incubated at 37° C. for 5 minutes. The infarcted tissue appeared white, while the non-infarcted tissue appeared red. Image J software was used to measure the area of cerebral infarction and the percentage of infarct area to the total brain area was calculated.

[3] = tested on: MCAO rats; experiment: Forelimb placement test in MCAO rats, injection of Aildenafil phosphate (Example 24); type: in vivo; conditions: x ± sD, n = 7
Procedure: (§6) • ? Animal selection: healthy SD rats were used as experimental animals. In order to eliminate the impact of individual animal variations on the results, 10 rats were used in each group. […] After 2 hours of cerebral ischemia-reperfusion, the drug was immediately injected into the tail vein for consecutive 7 days.
(§7) On the day of the experiment, the rat was anesthetized with isoflurane gas and fixed in a supine position. The skin was cut along the midline of the neck to expose the right arteriae carotis communis. The nerves and fascia around the blood vessels from the common carotid artery bifurcation to the base of the skull were carefully removed, and the external and internal carotid arteries were separated sequentially. A MCAO suture (250-280 g) was inserted from the free end of the external carotid artery, and the nylon suture was introduced into the internal carotid artery from the distal end of the external carotid artery. It was inserted into the middle cerebral artery in the Willis ring to effectively block the middle cerebral artery. The length of the inserted suture was 18-20 mm away from the bifurcation of the common carotid artery. Then the free end of the external carotid artery was ligated along with intracavity suture to prevent bleeding. The subcutaneous fascia and skin were sutured layer by layer, and penicillin was locally added dropwise to prevent infection. The Sham group only isolated the internal carotid artery. 2 hours after the start of MCAO, the suture was carefully removed from the lumen of the internal carotid artery to allow for reperfusion of the internal carotid artery. Animals were kept in cages. • ? Y Grouping and administration
(§8) The rats successfully modeled with a neurological function score of 8-12 were randomly divided into four groups based on the score: model control group, low-dose 2.5 mg/kg group of test drug, medium dose 5 mg/kg group of test drug, and high-dose 10 mg/kg group of test drug, with 7 rats in each group. […] Immediately after cerebral ischemia-reperfusion for 2 hours, the drug was administered via tail vein injection for consecutive 7 days. The endpoint of the experiment is 14 days after the first administration. Please see Table 7 for details.
(§9) Balance beam and forelimb placement tests were performed after 7 and 14 days administration, respectively.

[4] = tested on: MCAO rats; experiment: Cerebral infarction range (TTC) in MCAO rats, injection of Aildenafil phosphate (Example 24); type: in vivo, SD rats; conditions: 14 days; for Improvement rate % of cerebral infarction range: versus model control group; for Infarct size (%): x ± sD, n = 7
Procedure: as §6, §7, §8
After 14 days of medication, rats were anesthetized with isoflurane gas to collect blood and euthanized by cervical vertebrae dislocation. The brain tissue was taken and placed in a −20° C. freezer for freezing, and was sliced from front to back, each slice has a thickness of 2 mm. Brain tissue slices were incubated in a 2% red tetrazolium (TTC) solution at 37° C. for 5 minutes. […] Image J software was used to measure the area of cerebral infarction and the percentage of infarct area to the total brain area was calculated.

[5] = tested on: MCAO rats; experiment: Balance beam test in MCAO rats, injection of Aildenafil phosphate (Example 24); type: in vivo; conditions: x ± sD, n = 7
Procedure: as §6, §7, §8, §9

[6] = Saturation solubility of Aildenafil salts in water at room temperature; type: physicochemical
[7] = Sterilization stability test of aqueous solutions (121° C., 30 minutes, HPLC relevant substances); conditions: 0.5 mg/ml aqueous solution; for Conclusion (sterilization stability) / Relevant substances after sterilization: sterilized at 121° C. for 30 minutes
Procedure: They were sterilized in a 121° C. sterilizer for 30 minutes, and sampled before and after sterilization. The relevant substances were measured according to the following method:
Relevant substances: taking the samples and dissolving it in the mobile phase to prepare a solution containing 0.5 mg per 1 ml, which was used as the test solution; using octadecylsilane bonded silica gel as the filler, phosphate buffer (800 ml of water, 7 ml of triethylamine added, pH adjusted to 3.0 with phosphoric acid, diluted to 1000 ml with water)-methanol acetonitrile (58:25:17) as the mobile phase, with a detection wavelength of 290 nm.

[8] = tested on: MCAO rats; experiment: Neurological function (behavioral) score in MCAO rats, oral administration (Example 23); type: in vivo, SD rats; conditions: gavage 8 mg/kg twice a day; after 3, 7 and 14 days administration
Procedure: as §1, §2, §3, §4
After 2 hours of embolization, then reperfusion, according to the scoring criteria in the attached table, the degree of neurological damage in the animals was scored using a blind method. Those with significant neurological deficits (>8 points) were considered successful in modeling.
as §5
Neurological function score: evaluation was conducted before treatment, 3 days, 7 days, and 14 days after treatment.

[9] = Physical and chemical properties of the experimental drugs (Example 23)
[10] = tested on: ischemic stroke model rats; experiment: Cerebral infarction range (TTC), ischemic stroke model rats, intravenous administration (Example 22); type: in vivo, SD rats; conditions: 10 mg/kg iv qd 7 d
Excerpt: (§10) On the day of the experiment, the rat was anesthetized with isoflurane gas and placed in a supine position for fixation. The skin was cut along the midline of the neck to expose the right common carotid artery. The nerves and fascia around the blood vessels from the common carotid artery bifurcation to the base of the skull were carefully removed, and the external and internal carotid arteries were separated sequentially. The MCAO suture was inserted from the free end of the external carotid artery, and the nylon suture was introduced into the internal carotid artery from the distal end of the external carotid artery. It was inserted into the Willis ring of the middle cerebral artery to effectively block the middle cerebral artery. The length of the inserted suture was 18-20 mm away from the bifurcation of the common carotid artery. Then the free end of the external carotid artery was ligated along with the endovascular suture to prevent bleeding. […] Animals were kept in cages. The animals successfully modeled were randomly divided into three groups based on their scores, namely the model control group, compound 1 AD group ([…] citrate group) 10 mg/kg, and compound 2 XD group (Sildenafil citrate group) 10 mg/kg, with 10 animals in each group. […] The endpoint of the experiment was 14 days after administration, and the dosage is detailed in the table below. This experiment was administered intravenously with a dosage of 10 mg/kg and a volume of 5 mL/kg, once per day for consecutive 7 days. At the end of the experiment, the brain tissue of the rats was collected by bloodletting and frozen in a -20° C. freezer, then are sliced with a thickness of 2 mm per slice. The brain tissue slices were placed in a 2% red tetrazolium (TTC) solution and incubated at 37° C. for 5 minutes. The infarcted tissue appeared white, while the non-infarcted tissue appeared red.

[11] = tested on: ischemic stroke model rats; experiment: Neurological function (behavioral) score, ischemic stroke model rats, intravenous administration (Example 22); type: in vivo, SD rats; set-up: scale not given here; conditions: 10 mg/kg iv qd 7 d, x ± s, n = 10
Excerpt: as §10, with “cages. After 2 hours of embolization, then reperfusion, according to the scoring criteria in the attached table, the degree of neurological damage in the animals was scored using a blind method. Those with significant neurological deficits (>8 points) were considered successful in modeling. • ? Grouping and administration” for “cages.”, “Score before treatment, 3 days after treatment, 7 days after treatment,” for “At the end of the experiment, the brain tissue of the rats was collected by bloodletting”, “14 days after treatment.” for “frozen in a -20° C. freezer, then are sliced with a thickness of 2 mm per slice. The brain tissue slices were placed in a 2% red tetrazolium (TTC) solution and incubated at 37° C. for 5 minutes. The infarcted tissue appeared white, while the non-infarcted tissue appeared red.”

[12] = 5 mg/kg iv qd 7 d (medium dose)

With `CCCc1nn(C)c2c(=O)[nH]c(-c3cc(S(=O)(=O)N4C[C@@H](C)N[C@@H](C)C4)ccc3OCC)nc12` [Aildenafil D-tartrate] the “2 mg/ml pH value” ([1]; listed as D-tartrate) was 3.84 and the “10 mg/ml pH value” ([1]; listed as D-tartrate) was 3.58.

In the case of `CCCc1nn(C)c2c(=O)[nH]c(-c3cc(S(=O)(=O)N4C[C@@H](C)N[C@@H](C)C4)ccc3OCC)nc12` [Aildenafil DL-tartrate], the “2 mg/ml pH value” [1] is reported as 3.90 and the “10 mg/ml pH value” [1] is reported as 3.57.

In the case of `CN1CC(=O)N2[C@H](c3ccc4c(c3)OCO4)c3[nH]c4ccccc4c3C[C@@H]2C1=O` [Tadalafil], the “Improvement rate % of cerebral infarction range” value (shortened to “Improvement rate %”) [2] is reported as 14.2% and the “Total cerebral infarction %” value [2] is reported as 21.3 ± 6.5%.

With `CCCc1nn(C)c2c(=O)[nH]c(-c3cc(S(=O)(=O)N4C[C@@H](C)N[C@@H](C)C4)ccc3OCC)nc12` [Aildenafil phosphate] the “Forelimb left (%), 7 days after medication” value ([3]; 5 mg/kg iv qd 7 d) was 18.57 ± 18.64%, the “Forelimb left (%), 14 days after medication” value ([3]; 5 mg/kg iv qd 7 d) was 37.14 ± 30.39 % and the “Forelimb right (%), 7 days after medication” value ([3]; 5 mg/kg iv qd 7 d) was 100 ± 0%. The “Forelimb right (%), 14 days after medication” value ([3]; 5 mg/kg iv qd 7 d) was 100 ± 0%, the “Forelimb left (%), 7 days after medication” value ([3]; 10 mg/kg iv qd 7 d) was 14.29 ± 18.13% and the “Forelimb left (%), 14 days after medication” value ([3]; 10 mg/kg iv qd 7 d) was 38.57 ± 28.54 %. For the same molecule, the “Forelimb right (%), 7 days after medication” value ([3]; 10 mg/kg iv qd 7 d) was 100 ± 0%, the “Forelimb right (%), 14 days after medication” value ([3]; 10 mg/kg iv qd 7 d) was 100 ± 0% and the “Improvement rate %” value ([4]; 5 mg/kg iv qd 7 d) was 46.5%. For the same molecule, the “Infarct size (%)” value ([4]; 5 mg/kg iv qd 7 d) was 13.13 ± 4.12 %, the “Improvement rate %” value ([4]; 10 mg/kg iv qd 7 d) was 43.4% and the “Infarct size (%)” value ([4]; 10 mg/kg iv qd 7 d) was 13.90 ± 4.70 %. For the same molecule, the “balance beam, 7 days after medication” value [5, 12] was 2.14 ± 0.9 min, the “balance beam, 14 days after medication” value [5, 12] was 4.29 ± 1.38 min and the “balance beam, 7 days after medication” value ([5]; 10 mg/kg iv qd 7 d (high dose)) was 2.71 ± 1.25 min. For the same molecule, the “balance beam, 14 days after medication” value ([5]; 10 mg/kg iv qd 7 d (high dose)) was 4.29 ± 1.60 min, the “time to dissolve to be clear in water by hand shaking” value [6] was 15 s and the “2 mg/ml pH value” [1] was 5.47. The “10 mg/ml pH value” [1] was 5.38, the “Relevant substances before sterilization” value [7] was “None” and the “Conclusion (sterilization stability)” value [7] was “No changes, stable”. For the same molecule, the “Relevant substances after sterilization” value [7] was “no impurities were found and no impurities are produced and None”.

For `CCCc1nn(C)c2c(=O)[nH]c(-c3cc(S(=O)(=O)N4C[C@@H](C)N[C@@H](C)C4)ccc3OCC)nc12.O=C(O)C(O)C(O)C(=O)O` [Aildenafil L-tartrate, L-tartrate (1:1) of 1-[4-ethoxy-3-[5-(6,7-dihydro-1-methyl-7-oxy-3-n-propyl-1H-pyrazolo[4,3-d]pyrimidine)]benzenesulfonyl]-cis-3,5-dimethylpiperazine], the “time to dissolve to be clear in water by hand shaking” value [6] was 15 s, the solubility ([6]; thermodynamic from solid, room temperature, read-out: Saturated Solubility in water at room temperature) was about 50 mg/mL and the “2 mg/ml pH value” [1] was 3.59. For the same molecule, the “10 mg/ml pH value” [1] was 3.56, the “Relevant substances before sterilization” value [7] was “None” and the “Conclusion (sterilization stability)” value [7] was “No changes, stable”. The “Relevant substances after sterilization” value [7] was “no impurities were found and None” and the “Relevant substances after sterilization” value ([7]; listed as L-tartrate) was “no impurities are produced”.

For Yukinafil citrate, the “Improvement rate %” value [2] was 13.1%, the “Total cerebral infarction %” value [2] was 21.2 ± 6.3% and the “behavioral scores compared with the model control group” value [8] was “trend of improvement”. The “solubility in DMF or DMSO (in words)” value ([9]; DMF or DMSO) was “soluble” and the “solubility in water (in words)” value ([9]; water) was “soluble”.

For `CCCc1nn(C)c2c(=O)[nH]c(-c3cc(S(=O)(=O)N4C[C@@H](C)N[C@@H](C)C4)ccc3OCC)nc12` [Aildenafil citrate], the “Total cerebral infarction %” value ([10]; 14 days after administration, x ± s, n = 10) was 17.6 ± 7.7 %, the “Improvement rate %” value ([10]; 14 days, versus model control group) was 29.6% and the “behavioral score, 3 days after medication” value ([11]; 3 days after medication) was 6.9 ± 1.5. For the same molecule, the “behavioral score, 7 days after medication” value ([11]; 7 days after medication) was 5.5 ± 1.1, the “behavioral score, 14 days after medication” value ([11]; 14 days after medication) was 4.3 ± 1.3 and the “behavioral score, Before medication” value ([11]; before medication) was 9.7 ± 0.5. For the same molecule, the “2 mg/ml pH value” [1] was 4.11, the “10 mg/ml pH value” [1] was “Insoluble” and the “Relevant substances before sterilization” value [7] was “None”. The “Conclusion (sterilization stability)” value [7] was “No changes, stable” and the “Relevant substances after sterilization” value [7] was “no impurities were found and None”.
